Source: patent publication US10689365B2, “Substituted 2-alkylimidazolylcarboxamides as pesticides” (Bayer CropScience Aktiengesellschaft, priority 2016, dated 2020)
Like-named read-outs stand apart in the source and are kept apart here.

Experiments:
[1] = log P by HPLC on reversed-phase (C18) columns, OECD Guideline 117; format: physicochemical; conditions: reversed-phase (C18) HPLC column
In short: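 Reversed-phase C18 HPLC per OECD 117, LC-MS with a linear 10% to 95% acetonitrile gradient. Acidic method at pH 2.7 with 0.1% formic acid; neutral method at pH 7.8 with 0.001 M ammonium hydrogencarbonate.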

Myzus persicae [2] = experiment: Myzus persicae - oral test (MYZUPE O); format: in vivo; conditions: read-out: % efficacy
Protocol: Myzus persicae—Oral Test (MYZUPE O)
Solvent: 100 parts by weight of acetone
To produce a suitable preparation of active compound, 1 part by weight of active compound is dissolved using the specified parts by weight of solvent and made up with water until the desired concentration is attained.
50 μl of the active compound preparation are transferred into microtitre plates and made up to a final volume of 200 μl with 150 μl of IPL41 insect medium (33%+15% sugar). Subsequently, the plates are sealed with parafilm, which a mixed population of green peach aphids (Myzus persicae) within a second microtitre plate is able to puncture and imbibe the solution through it.
(§1) After the desired period of time, the efficacy in % is determined. 100% means that all the aphids have been killed; 0% means that no aphids have been killed.

Myzus persicae [3] = experiment: Myzus persicae - drench test (MYZUPE D), Savoy cabbage in soil; format: in vivo; conditions: 240 h, 10 dat, read-out: % efficacy
Protocol: Myzus persicae—Drench Test (MYZUPE D)
To produce a suitable active compound preparation, 1 part by weight of active compound is mixed with the specified amounts of solvent and emulsifier, and the concentrate is diluted with water to the desired concentration, it being necessary to include the volume of soil which is drenched in the calculation. It should be ensured that a concentration of 40 ppm of emulsifier in the soil is not exceeded. To produce further test concentrations, water is used for dilution.
Savoy cabbage (Brassica oleracea) in pots with soil and infested by all stages of the green peach aphid (Myzus persicae) is watered with an active compound preparation of the desired concentration.
as §1

Aphis gossypii = Aphis gossypii - spray test (APHIGO S), cotton plants; format: in vivo; conditions: 144 h, 6 dat, read-out: % efficacy
Protocol: Aphis gossypii—Spray Test (APHIGO S)
(§2) Solvent: 14 parts by weight of dimethylformamide
(§3) Emulsifier: alkylaryl polyglycol ether
To produce a suitable active compound preparation, 1 part by weight of active compound is dissolved using the stated parts by weight of solvent and made up with water containing an emulsifier concentration of 1000 ppm until the desired concentration is attained. To produce further test concentrations, the formulation is diluted with emulsifier-containing water. If the addition of ammonium salts or/and penetrants is required, these are each added in a concentration of 1000 ppm to the formulation solution.
Cotton plants (Gossypium hirsutum) heavily infested by the cotton aphid (Aphis gossypii) are sprayed with an active ingredient formulation of the desired concentration.
After the desired time, the kill in % is determined. 100% means that all the aphids have been killed; 0% means that no aphids have been killed.

Myzus persicae [4] = experiment: Myzus persicae - spray test (MYZUPE), Chinese cabbage leaf discs; format: in vivo; conditions: foliar; for percent efficacy (aphid mortality) at 100 g/ha: 100 g of ai/ha; for percent efficacy (aphid mortality) at 20 g/ha / Emax at 20 g/ha: 20 g of ai/ha; for Emax at 20 g/ha: read-out: % efficacy
Protocol: Myzus persicae—Spray Test (MYZUPE)
Solvent: 78.0 parts by weight of acetone • • 1.5 parts by weight of dimethylformamide
as §3
To produce a suitable active compound preparation, 1 part by weight of active compound is dissolved using the stated parts by weight of solvent and made up with water containing an emulsifier concentration of 1000 ppm until the desired concentration is attained. To produce further test concentrations, the formulation is diluted with emulsifier-containing water.
Discs of Chinese cabbage leaves (Brassica pekinensis) infested by all stages of the green peach aphid (Myzus persicae) are sprayed with an active compound preparation of the desired concentration.
as §1

Myzus persicae [5] = experiment: Myzus persicae - oral test; format: in vivo; conditions: Myzus persicae, po, 120 h; application rate 20 ppm, after 5 days; read-out: efficacy
In short: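 Aphid feeding test: compound dissolved in acetone, diluted with water and mixed with IPL41 insect medium plus sugar, offered through parafilm to a mixed population of green peach aphids. Mortality scored after 5 days as % efficacy (100% = all aphids dead, 0% = none dead).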

Myzus persicae [6] = experiment: Myzus persicae - spray test (Chinese cabbage leaf discs); format: in vivo; conditions: Myzus persicae, foliar; application rate 500 g/ha, after 5-6 days; read-out: efficacy
In short: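 Chinese cabbage leaf discs carrying all aphid stages were sprayed with compound dissolved in acetone/dimethylformamide and diluted in water with 1000 ppm alkylaryl polyglycol ether emulsifier. Efficacy was recorded after 5-6 days as % aphids killed (100% = all, 0% = none).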

Myzus persicae [7] = experiment: Myzus persicae - spray test (MYZUPE S), bell pepper plants; format: in vivo; conditions: 144 h, 6 dat, read-out: % efficacy
Protocol: Myzus persicae—Spray Test (MYZUPE S)
as §2, §3
To produce a suitable active compound preparation, 1 part by weight of active compound is dissolved with the specified parts by weight of solvent and made up with water containing an emulsifier concentration of 1000 ppm until the desired concentration is attained. To produce further test concentrations, the formulation is diluted with emulsifier-containing water. If the addition of ammonium salts or/and penetrants is required, these are each added in a concentration of 1000 ppm to the formulation solution.
Bell pepper plants (Capsicum annuum) severely infested with the green peach aphid (Myzus persicae) are treated by spraying with the active ingredient formulation in the desired concentration.
After the desired time, the kill in % is determined. 100% means that all the animals have been killed; 0% means that no animals have been killed.

[8] = acidic range, pH 2.7, 0.1% aqueous formic acid/acetonitrile, read-out: logP[a]
[9] = neutral range, pH 7.8, aqueous ammonium hydrogencarbonate/acetonitrile, read-out: logP[n]

| SMILES | chromatographic logP [1, 8] | chromatographic logP [1, 9] | Emax at 4 ppm (Myzus persicae [2]; 120 h, 5 dat) [%] | Emax at 0.16 ppm (Myzus persicae [3]) [%] | Emax at 0.8 ppm (Aphis gossypii) [%] | Emax at 4 ppm (Aphis gossypii) [%] | percent efficacy (aphid mortality) at 100 g/ha (Myzus persicae [4]; 120 h, 5 dat) [%] | pest or weed control at 20 ppm (Myzus persicae [5]) [%] | pest or weed control at 500 g/ha (Myzus persicae [6]) [%] | Emax at 0.16 ppm (Myzus persicae [7]) [%] | percent efficacy (aphid mortality) at 20 g/ha (Myzus persicae [4]; 120 h, 5 dat) [%] | Emax at 4 ppm (Myzus persicae [2]; 144 h, 6 dat) [%] | percent efficacy (aphid mortality) at 100 g/ha (Myzus persicae [4]; 144 h, 6 dat) [%] | percent kill (mortality) of aphids at a fixed dose at 0.8 ppm (Aphis gossypii) [%] | percent kill (mortality) of aphids at a fixed dose at 4 ppm (Aphis gossypii) [%] | Emax at 20 g/ha (Myzus persicae [4]; 120 h, 5 dat) [%] |
| --- | --- | --- | --- | --- | --- | --- | --- | --- | --- | --- | --- | --- | --- | --- | --- | --- |
| CC(C)CS(=O)(=O)Cc1ncc(C(=O)N(C)c2cccnc2)n1C [Example I-1-32] | 1.05 | 1.26 | 100 | 98 | 98 | 97 | 70 | 100 | 90 | 98 | – | – | – | – | – | – |
| CN(C(=O)c1cnc(CS(=O)(=O)C(C)(C)C)n1C)c1cccnc1 [Example I-1-34] | 0.75 | 1.03 | 100 | 90 | 85 | 95 | 90 | 100 | 100 | 45 | 90 | – | – | – | – | – |
| CN(C(=O)c1cnc(CSCC2CC2)n1C)c1cccnc1 [Example I-1-35] | 0.96 | 1.57 | 100 | 98 | 99 | 100 | 90 | 100 | 100 | 100 | 90 | – | – | – | – | – |
| CN(C(=O)c1cnc(CSCC(C)(C)C)n1C)c1cccnc1 [Example I-1-36] | 1.42 | 2.06 | 100 | 80 | 98 | 98 | 90 | 100 | 90 | 75 | 90 | – | – | – | – | – |
| CN(C(=O)c1cnc(Cn2nccn2)n1C)c1cccnc1 [Example I-1-47] | 0.35 | 0.75 | – | 90 | 100 | 100 | – | 100 | 100 | 90 | – | 100 | 90 | – | – | – |
| CN(C(=O)c1cnc(CS(=O)(=O)CC2CC2)n1C)c1cccnc1 [Example I-1-48] | 0.71 | 1.04 | 100 | 90 | – | – | 100 | 100 | 100 | 99 | 100 | – | – | 100 | 100 | – |
| CCSCc1ncc(C(=O)N(CC)c2cccnc2)n1C [Example I-1-49] | 0.71 | – | 100 | 95 | 98 | 100 | 70 | 100 | 90 | 95 | 70 | – | – | – | – | – |
| CCN(C(=O)c1cnc(CSC(C)C)n1C)c1cccnc1 [Example I-1-50] | 1.1 | 1.73 | 100 | 98 | – | 95 | 90 | 100 | 90 | 100 | – | – | – | 90 | – | 70 |
| CCN(C(=O)c1cnc(CSCC(C)C)n1C)c1cccnc1 [Example I-1-51] | 1.32 | 2.05 | 100 | 98 | 99 | 99 | 90 | 100 | 100 | 99 | 90 | – | – | – | – | – |
| CCN(C(=O)c1cnc(CSC(C)(C)C)n1C)c1cccnc1 [Example I-1-52] | 1.29 | 1.93 | 100 | 95 | – | – | 90 | 100 | 90 | 99 | – | – | – | – | 90 | 70 |
| CCN(C(=O)c1cnc(CSCC2CC2)n1C)c1cccnc1 [Example I-1-53] | 1.19 | 1.82 | 100 | 90 | – | 97 | 100 | 100 | 100 | 99 | 100 | – | – | 98 | – | – |
